Assays:
Assay in all cases: Kinase panel activity
Format in all cases: biochemical
Details in all cases: 0.1 μM, ATP Km
EphB2(h) = biological target: T1, EphB2(h) (Homo sapiens, UniProt P29323)
T1 construct: purchased Millipore (KinaseProfiler service)
Procedure: (§1) The effect of NTW-3475 on kinase activity was tested for a wide range of kinases and is shown in Table 2: Summary Sheet, Activity % ATP Concentration: Km

TAO1(h) = biological target: T2, TAO1(h) (Homo sapiens, UniProt Q7L7X3)
T2 construct: purchased Millipore (KinaseProfiler service)
Procedure: as §1

eEF-2K(h) = biological target: T3, eEF-2K(h) (Homo sapiens, UniProt O00418)
T3 construct: purchased Millipore (KinaseProfiler service)
Procedure: as §1

PKBβ(h) = PKBβ(h) (Homo sapiens, UniProt P31751)
Procedure: as §1

Ros(h) = biological target: T4, Ros(h) (Homo sapiens, UniProt P08922)
T4 construct: purchased Millipore (KinaseProfiler service)
Procedure: as §1

TAO2(h) = biological target: T5, TAO2(h) (Homo sapiens, UniProt Q9UL54)
T5 construct: purchased Millipore (KinaseProfiler service)
Procedure: as §1

GRK5(h) = GRK5(h) (Homo sapiens, UniProt P34947)
Procedure: as §1

F1t4(h) = F1t4(h) (Homo sapiens, UniProt P35916)
Procedure: as §1

MKK6(h) = biological target: T6, MKK6(h) (Homo sapiens, UniProt P52564)
T6 construct: purchased Millipore (KinaseProfiler service)
Procedure: as §1

SAPK4(h) = biological target: T7, SAPK4(h) (Homo sapiens, UniProt O15264)
T7 construct: purchased Millipore (KinaseProfiler service)
T7 sequence (O15264 whole entry): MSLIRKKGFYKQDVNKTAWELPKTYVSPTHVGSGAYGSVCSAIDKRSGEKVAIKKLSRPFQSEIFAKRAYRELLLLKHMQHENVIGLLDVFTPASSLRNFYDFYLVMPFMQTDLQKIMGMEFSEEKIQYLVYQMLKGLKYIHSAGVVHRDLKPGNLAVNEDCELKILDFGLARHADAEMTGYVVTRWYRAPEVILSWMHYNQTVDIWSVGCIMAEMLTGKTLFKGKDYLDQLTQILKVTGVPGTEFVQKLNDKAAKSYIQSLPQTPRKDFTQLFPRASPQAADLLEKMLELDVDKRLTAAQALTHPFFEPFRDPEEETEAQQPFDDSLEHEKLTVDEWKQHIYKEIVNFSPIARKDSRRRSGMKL
Procedure: as §1

Ret(V804M)(h) = biological target: T8, Ret(V804M)(h) (Homo sapiens, UniProt P07949, V804M)
T8 construct: purchased Millipore (KinaseProfiler service)
Procedure: as §1

IRAK4(h) = IRAK4(h) (Homo sapiens, UniProt Q9NWZ3)
Procedure: as §1

EGFR(T790M,L858R)(h) = biological target: T9, EGFR(T790M,L858R)(h) (Homo sapiens, UniProt P00533, L858R/T790M)
T9 construct: purchased Millipore (KinaseProfiler service)
Procedure: as §1

cSRC(h) = cSRC(h) (Homo sapiens, UniProt P12931)
Procedure: as §1

FGFR4(h) = FGFR4(h) (Homo sapiens, UniProt P22455)
Procedure: as §1

ULK2(h) = ULK2(h) (Homo sapiens, UniProt Q8IYT8)
Chain of ULK2(h) (Q8IYT8 whole entry): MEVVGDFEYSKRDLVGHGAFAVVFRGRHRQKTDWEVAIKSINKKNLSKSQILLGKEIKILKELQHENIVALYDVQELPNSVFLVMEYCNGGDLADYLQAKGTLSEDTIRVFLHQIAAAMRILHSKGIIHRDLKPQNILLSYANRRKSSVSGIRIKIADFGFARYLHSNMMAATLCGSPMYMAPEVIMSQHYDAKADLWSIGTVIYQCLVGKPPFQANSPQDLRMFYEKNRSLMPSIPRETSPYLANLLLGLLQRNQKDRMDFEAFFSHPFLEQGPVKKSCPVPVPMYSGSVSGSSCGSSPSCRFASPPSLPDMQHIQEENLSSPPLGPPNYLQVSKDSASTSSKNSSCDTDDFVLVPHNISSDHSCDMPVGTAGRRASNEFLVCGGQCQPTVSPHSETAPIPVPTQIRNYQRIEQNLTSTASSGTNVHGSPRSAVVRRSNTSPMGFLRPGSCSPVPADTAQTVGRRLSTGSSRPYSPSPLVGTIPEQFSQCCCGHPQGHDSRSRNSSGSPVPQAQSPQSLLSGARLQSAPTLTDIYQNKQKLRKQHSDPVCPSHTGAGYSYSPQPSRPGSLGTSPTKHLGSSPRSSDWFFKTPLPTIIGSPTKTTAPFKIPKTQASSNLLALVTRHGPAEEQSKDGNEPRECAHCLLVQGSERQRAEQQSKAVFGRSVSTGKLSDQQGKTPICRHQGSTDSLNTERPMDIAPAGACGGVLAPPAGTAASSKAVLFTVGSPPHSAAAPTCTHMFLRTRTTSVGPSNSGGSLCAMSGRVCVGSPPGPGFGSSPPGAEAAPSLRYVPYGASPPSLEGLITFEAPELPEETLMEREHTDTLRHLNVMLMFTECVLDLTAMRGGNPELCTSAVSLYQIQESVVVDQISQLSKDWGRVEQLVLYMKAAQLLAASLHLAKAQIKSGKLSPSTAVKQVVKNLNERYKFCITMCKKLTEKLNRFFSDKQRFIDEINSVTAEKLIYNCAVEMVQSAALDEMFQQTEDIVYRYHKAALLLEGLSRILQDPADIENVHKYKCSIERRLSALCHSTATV
Procedure: as §1

MAPKAP-K3(h) = biological target: T10, MAPKAP-K3(h) (Homo sapiens, UniProt Q16644)
T10 construct: purchased Millipore (KinaseProfiler service)
T10 sequence (Q16644 whole entry): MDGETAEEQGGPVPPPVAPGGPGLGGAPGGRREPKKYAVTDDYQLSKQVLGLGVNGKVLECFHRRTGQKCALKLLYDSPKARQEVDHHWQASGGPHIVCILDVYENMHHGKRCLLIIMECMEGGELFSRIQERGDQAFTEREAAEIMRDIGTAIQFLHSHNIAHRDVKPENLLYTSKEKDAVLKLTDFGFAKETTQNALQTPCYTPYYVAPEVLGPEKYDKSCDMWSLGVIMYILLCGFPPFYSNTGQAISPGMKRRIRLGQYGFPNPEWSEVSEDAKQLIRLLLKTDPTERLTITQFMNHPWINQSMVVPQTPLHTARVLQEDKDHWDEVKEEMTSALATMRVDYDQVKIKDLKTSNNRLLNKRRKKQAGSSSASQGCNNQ
Procedure: as §1

PKCα(h) = PKCα(h) (Homo sapiens, UniProt P17252)
Procedure: as §1

VRK2(h) = VRK2(h) (Homo sapiens, UniProt Q86Y07)
Procedure: as §1

Ab1(T3151)(h) = Ab1(T3151)(h) (Homo sapiens, UniProt P00519, T315I)
Procedure: as §1

Hck(h) activated = Hck(h) activated (Homo sapiens, UniProt P08631)
Chain of Hck(h) activated (P08631 whole entry): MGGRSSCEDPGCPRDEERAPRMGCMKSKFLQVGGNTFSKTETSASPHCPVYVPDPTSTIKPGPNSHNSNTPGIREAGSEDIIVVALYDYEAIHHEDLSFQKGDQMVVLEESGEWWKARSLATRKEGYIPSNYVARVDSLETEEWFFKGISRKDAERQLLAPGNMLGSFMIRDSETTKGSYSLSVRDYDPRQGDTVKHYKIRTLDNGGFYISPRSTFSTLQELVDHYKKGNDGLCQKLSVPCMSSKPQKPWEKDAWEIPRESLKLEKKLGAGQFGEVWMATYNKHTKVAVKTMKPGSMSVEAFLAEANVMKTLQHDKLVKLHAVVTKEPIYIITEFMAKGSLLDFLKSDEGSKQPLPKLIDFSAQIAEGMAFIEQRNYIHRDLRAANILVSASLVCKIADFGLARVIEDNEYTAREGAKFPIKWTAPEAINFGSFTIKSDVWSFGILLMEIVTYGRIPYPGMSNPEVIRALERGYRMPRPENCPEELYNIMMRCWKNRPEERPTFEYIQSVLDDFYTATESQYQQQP
Procedure: as §1

CDK6/cyclinD3(h) = CDK6/cyclinD3(h) (Homo sapiens, UniProt Q00534)
Procedure: as §1

PKD2(h) = PKD2(h) (Homo sapiens, UniProt Q9BZL6)
Procedure: as §1

DDR2(h) = DDR2(h) (Homo sapiens, UniProt Q16832)
Chain of DDR2(h) (Q16832 22-855): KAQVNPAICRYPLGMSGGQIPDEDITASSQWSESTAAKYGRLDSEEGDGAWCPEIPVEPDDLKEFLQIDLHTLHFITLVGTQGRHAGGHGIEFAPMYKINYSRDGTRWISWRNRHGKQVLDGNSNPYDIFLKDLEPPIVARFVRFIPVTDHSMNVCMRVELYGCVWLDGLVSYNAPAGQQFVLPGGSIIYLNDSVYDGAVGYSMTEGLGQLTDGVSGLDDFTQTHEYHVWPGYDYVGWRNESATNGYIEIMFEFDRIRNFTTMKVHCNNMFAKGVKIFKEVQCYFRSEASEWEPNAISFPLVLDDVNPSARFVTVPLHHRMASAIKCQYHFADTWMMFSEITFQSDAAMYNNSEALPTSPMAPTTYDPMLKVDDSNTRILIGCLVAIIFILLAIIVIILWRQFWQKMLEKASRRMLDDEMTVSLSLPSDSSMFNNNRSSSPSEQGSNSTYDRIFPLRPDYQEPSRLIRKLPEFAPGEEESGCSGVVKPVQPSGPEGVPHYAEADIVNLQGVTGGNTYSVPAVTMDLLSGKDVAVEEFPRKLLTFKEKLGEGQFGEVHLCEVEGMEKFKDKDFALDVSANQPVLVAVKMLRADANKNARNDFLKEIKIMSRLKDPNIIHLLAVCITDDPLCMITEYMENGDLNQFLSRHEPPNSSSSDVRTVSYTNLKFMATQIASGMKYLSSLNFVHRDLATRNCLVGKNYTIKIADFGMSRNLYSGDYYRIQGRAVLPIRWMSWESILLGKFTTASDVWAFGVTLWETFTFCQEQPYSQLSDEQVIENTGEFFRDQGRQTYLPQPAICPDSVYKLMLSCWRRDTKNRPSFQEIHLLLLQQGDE
Procedure: as §1

F1t3(h) = F1t3(h) (Homo sapiens, UniProt P36888)
Procedure: as §1

Rsk4(h) = biological target: T11, Rsk4(h) (Homo sapiens, UniProt Q9UK32)
T11 construct: purchased Millipore (KinaseProfiler service)
Procedure: as §1

TBK1(h) = biological target: T12, TBK1(h) (Homo sapiens, UniProt Q9UHD2)
T12 construct: purchased Millipore (KinaseProfiler service)
Procedure: as §1

TGFBR1(h) = biological target: T13, TGFBR1(h) (Homo sapiens, UniProt P36897)
T13 construct: purchased Millipore (KinaseProfiler service)
Procedure: as §1

LOK(h) = LOK(h) (Homo sapiens, UniProt O94804)
Procedure: as §1

TSSK1(h) = biological target: T14, TSSK1(h) (Homo sapiens, UniProt Q9BXA7)
T14 construct: purchased Millipore (KinaseProfiler service)
T14 sequence (Q9BXA7 whole entry): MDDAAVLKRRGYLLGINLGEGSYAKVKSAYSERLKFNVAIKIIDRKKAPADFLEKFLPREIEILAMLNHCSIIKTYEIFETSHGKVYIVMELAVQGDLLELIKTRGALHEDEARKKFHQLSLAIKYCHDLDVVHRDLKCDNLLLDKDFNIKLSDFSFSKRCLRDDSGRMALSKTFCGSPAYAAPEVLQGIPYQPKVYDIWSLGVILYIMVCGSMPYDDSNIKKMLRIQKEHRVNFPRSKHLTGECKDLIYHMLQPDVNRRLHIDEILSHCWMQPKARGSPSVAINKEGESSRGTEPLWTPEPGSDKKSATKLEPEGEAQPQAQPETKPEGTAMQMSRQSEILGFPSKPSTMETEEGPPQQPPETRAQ
Procedure: as §1

NEK7(h) = NEK7(h) (Homo sapiens, UniProt Q8TDX7)
Procedure: as §1

PDK1(h) = PDK1(h) (Homo sapiens, UniProt O15530)
Procedure: as §1

ULK3(h) = ULK3(h) (Homo sapiens, UniProt Q6PHR2)
Procedure: as §1

BTK(R28H)(h) = BTK(R28H)(h) (Homo sapiens, UniProt Q06187, R28H)
Procedure: as §1

Tie2(R849W)(h) = biological target: T15, Tie2(R849W)(h) (Homo sapiens, UniProt Q02763, R849W)
T15 construct: purchased Millipore (KinaseProfiler service)
Procedure: as §1

LKB1(h) = LKB1(h) (Homo sapiens, UniProt Q15831)
Procedure: as §1

CSK(h) = CSK(h) (Homo sapiens, UniProt P41240)
Procedure: as §1

MAPK1(h) = MAPK1(h) (Homo sapiens, UniProt P27361)
Procedure: as §1

CHK2(h) = CHK2(h) (Homo sapiens, UniProt O96017)
Procedure: as §1

GCK(h) = GCK(h) (Homo sapiens, UniProt Q12851)
Chain of GCK(h) (Q12851 whole entry): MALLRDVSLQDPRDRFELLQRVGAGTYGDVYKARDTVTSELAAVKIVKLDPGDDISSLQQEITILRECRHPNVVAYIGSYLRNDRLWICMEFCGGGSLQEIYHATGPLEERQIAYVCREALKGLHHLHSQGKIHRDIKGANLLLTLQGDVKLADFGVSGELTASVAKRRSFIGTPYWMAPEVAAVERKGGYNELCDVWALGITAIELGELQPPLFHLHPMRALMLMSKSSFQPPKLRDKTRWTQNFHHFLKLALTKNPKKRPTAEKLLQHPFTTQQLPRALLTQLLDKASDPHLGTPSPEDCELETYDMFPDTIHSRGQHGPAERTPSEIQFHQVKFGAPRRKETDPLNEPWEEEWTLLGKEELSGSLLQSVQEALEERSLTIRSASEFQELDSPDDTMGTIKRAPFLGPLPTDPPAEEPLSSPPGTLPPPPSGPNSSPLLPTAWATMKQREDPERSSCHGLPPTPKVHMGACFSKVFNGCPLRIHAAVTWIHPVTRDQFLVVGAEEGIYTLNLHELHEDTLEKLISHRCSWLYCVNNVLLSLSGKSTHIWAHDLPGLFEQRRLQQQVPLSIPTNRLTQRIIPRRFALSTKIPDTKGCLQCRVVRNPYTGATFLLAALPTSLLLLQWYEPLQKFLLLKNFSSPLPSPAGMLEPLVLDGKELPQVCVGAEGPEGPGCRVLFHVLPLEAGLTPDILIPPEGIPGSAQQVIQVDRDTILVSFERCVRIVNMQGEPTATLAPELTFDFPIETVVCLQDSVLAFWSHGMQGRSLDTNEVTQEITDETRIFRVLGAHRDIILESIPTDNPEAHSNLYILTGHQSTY
Procedure: as §1

Activity % (EphB2(h)): 21%
Activity % (TAO1(h)): 65%
Activity % (eEF-2K(h)): 86%
Activity % (PKBβ(h)): 97%
Activity % (Ros(h)): 46%
Activity % (TAO2(h)): 6%
Activity % (GRK5(h)): 100%
Activity % (F1t4(h)): 0%
Activity % (MKK6(h)): 113%
Activity % (SAPK4(h)): 91%
Activity % (Ret(V804M)(h)): 0%
Activity % (IRAK4(h)): 67%
Activity % (EGFR(T790M,L858R)(h)): 17%
Activity % (cSRC(h)): 2%
Activity % (FGFR4(h)): 19%
Activity % (ULK2(h)): 46%
Activity % (MAPKAP-K3(h)): 103%
Activity % (PKCα(h)): 95%
Activity % (VRK2(h)): 99%
Activity % (Ab1(T3151)(h)): −2%
Activity % (Hck(h) activated): 12%
Activity % (CDK6/cyclinD3(h)): 65%
Activity % (PKD2(h)): 94%
Activity % (DDR2(h)): 9%
Activity % (F1t3(h)): 1%
Activity % (Rsk4(h)): 66%
Activity % (TBK1(h)): 28%
Activity % (TGFBR1(h)): 44%
Activity % (LOK(h)): 20%
Activity % (TSSK1(h)): 86%
Activity % (NEK7(h)): 98%
Activity % (PDK1(h)): 103%
Activity % (ULK3(h)): 11%
Activity % (BTK(R28H)(h)): 103%
Activity % (Tie2(R849W)(h)): 6%
Activity % (LKB1(h)): 98%
Activity % (CSK(h)): 75%
Activity % (MAPK1(h)): 128%
Activity % (CHK2(h)): 95%
Activity % (GCK(h)): 13%
SMILES: Cc1cc2c(F)c(Oc3nc(Nc4cc(C5CC5)[nH]n4)cc(N4CCN(C)CC4)n3)cc(F)c2[nH]1 [NTW-3475]
